Laboratory results as given in patent publication US5493020A, “Tricyclic inhibitors of the GPIIb IIIa receptor” (Genentech, Inc., priority 1993, dated 1996).
Read-outs that look alike come from different tables or passages of the source. One block for each molecule: values may come before it.

What was measured:
[1] = target: T1, human platelet GPIIbIIIa receptor (Homo sapiens, UniProt P05106+P08514); assay: modified fibrinogen-GPIIbIIIa ELISA (inhibition of fibrinogen binding to purified human platelet GPIIbIIIa receptor)
T1 construct: purified human platelet GPIIbIIIa receptor; from tissue; host or cells: human platelets (purified, solubilized receptor)
Method: In-vitro biological activity of the compounds of Formula I and II are monitored using a modified fibrinogen-GPIIbIIIa ELISA based on the method of Nachman and Leung (J. Clin. Invest. 69:263-269 (1982)) which measures the inhibition of fibrinogen binding to purified human platelet GPIIbIIIa receptor. Human fibrinogen is prepared by the method of Lipinska, et al. (J. Lab. Clin. Med. 84:509-516 (1974)). Platelet GPIIb IIIa is prepared by the method of Fitzgerald, et al., Anal. Biochem.,151:169-177 (1985).
Briefly, microtiter plates are coated with fibrinogen ([…]) and then blocked with TACTS buffer containing 0.5% bovine serum albumin (BSA). (TACTS buffer contains 20mM Tris.HCl, pH 7.5, 0.02% sodium azide, 2 mM calcium chloride, 0.05% Tween 20, 150 mM sodium chloride.) The plate is washed with phosphate buffered saline (PBS) containing 0.01% Tween 20 and the sample to be determined added, followed by addition of solubilized GP IIbIIIa receptor ([…]) in TACTS, 0.5% BSA. After incubation, the plate is washed and 1 mg/ml of murine anti-platelet monoclonal antibody AP3 (Newman et al., Blood 65:227-232 (1985)) is added. After another wash a goat anti-mouse IgG conjugated to horseradish peroxidase is added. A final wash is performed and developing reagent buffer (10 mg o-phenylenediamine dihydrochloride, 0.0212% hydrogen peroxide, 0.22 mM citrate, 50 mM phosphate, pH 5.0) is added and then incubated until color develops. The reaction is stopped with 1N sulfuric acid and the absorbance at 492 nm is recorded.

[2] = test system: human platelet rich plasma (platelet aggregation); assay: platelet aggregation (PA) inhibition assay in human platelet rich plasma; type: cell-based
Method: In addition to the GPIIb IIIa ELISA assay, platelet aggregation assays may be performed in human platelet rich plasma (PRP). […] The blood is centrifuged at 160×g for 10 min at 22° C. and then allowed to stand for 5 min after which the PRP is decanted. Platelet poor plasma (PPP) is isolated from the remaining blood after centrifugation at 2000×g for 25 min. The platelet count of the PRP is adjusted to ca. 300,000 per microliter with PPP.
A 225 mL aliquot of PRP plus 25 mL of either a dilution of the test sample or a control (PBS) is incubated for 5 min in a Chrono-log Whole Blood Aggregometer at 25° C. An aggregating agent (collagen, 1 mg/ml; U46619, 100 ng/ml; or ADP, 8 mM) is added and the platelet aggregation recorded.

GPIIb IIIa = conditions: result in words, EP 372 486 (Hoffmann La Roche); cited from earlier work
[3] = ELISA, read-out: IC50 Fg/IIbIIIa
[4] = Platelet, read-out: IC50 PA(citrate)
[5] = Platelet, read-out: IC50 PA(heparin)
[6] = platelet aggregation, citrate, read-out: IC50 PA(citrate)
[7] = platelet aggregation, heparin, read-out: IC50 PA(heparin)

T1 sequence (P08514 32-887 limits assumed): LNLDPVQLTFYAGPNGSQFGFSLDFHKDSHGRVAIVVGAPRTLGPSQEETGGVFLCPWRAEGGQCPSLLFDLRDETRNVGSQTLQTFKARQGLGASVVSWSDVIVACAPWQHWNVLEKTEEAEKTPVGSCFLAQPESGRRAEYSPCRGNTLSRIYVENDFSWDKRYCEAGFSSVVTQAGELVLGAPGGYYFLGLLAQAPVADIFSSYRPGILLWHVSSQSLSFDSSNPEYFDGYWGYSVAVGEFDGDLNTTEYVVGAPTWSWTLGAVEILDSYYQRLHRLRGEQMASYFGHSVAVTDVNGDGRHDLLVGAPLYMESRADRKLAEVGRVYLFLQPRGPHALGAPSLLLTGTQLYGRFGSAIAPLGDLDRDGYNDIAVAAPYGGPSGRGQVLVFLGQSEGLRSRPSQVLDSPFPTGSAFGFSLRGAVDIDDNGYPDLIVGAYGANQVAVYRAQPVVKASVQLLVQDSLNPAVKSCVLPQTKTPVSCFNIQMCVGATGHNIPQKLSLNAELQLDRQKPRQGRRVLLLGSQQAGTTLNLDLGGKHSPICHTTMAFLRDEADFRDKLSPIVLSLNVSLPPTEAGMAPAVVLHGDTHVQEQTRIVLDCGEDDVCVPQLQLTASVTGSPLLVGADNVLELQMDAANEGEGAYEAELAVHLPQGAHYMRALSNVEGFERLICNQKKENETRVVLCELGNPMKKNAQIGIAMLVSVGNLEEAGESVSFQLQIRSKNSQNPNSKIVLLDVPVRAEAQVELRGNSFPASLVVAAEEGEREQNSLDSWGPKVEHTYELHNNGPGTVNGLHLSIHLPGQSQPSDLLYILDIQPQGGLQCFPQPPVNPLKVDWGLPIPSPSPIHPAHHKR
T1 sequence (P08514 891-1039 limits assumed): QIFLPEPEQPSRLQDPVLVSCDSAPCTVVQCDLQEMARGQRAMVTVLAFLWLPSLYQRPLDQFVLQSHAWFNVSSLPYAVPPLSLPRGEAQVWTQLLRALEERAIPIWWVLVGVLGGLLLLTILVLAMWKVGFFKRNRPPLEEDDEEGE
T1 sequence (P05106 27-788): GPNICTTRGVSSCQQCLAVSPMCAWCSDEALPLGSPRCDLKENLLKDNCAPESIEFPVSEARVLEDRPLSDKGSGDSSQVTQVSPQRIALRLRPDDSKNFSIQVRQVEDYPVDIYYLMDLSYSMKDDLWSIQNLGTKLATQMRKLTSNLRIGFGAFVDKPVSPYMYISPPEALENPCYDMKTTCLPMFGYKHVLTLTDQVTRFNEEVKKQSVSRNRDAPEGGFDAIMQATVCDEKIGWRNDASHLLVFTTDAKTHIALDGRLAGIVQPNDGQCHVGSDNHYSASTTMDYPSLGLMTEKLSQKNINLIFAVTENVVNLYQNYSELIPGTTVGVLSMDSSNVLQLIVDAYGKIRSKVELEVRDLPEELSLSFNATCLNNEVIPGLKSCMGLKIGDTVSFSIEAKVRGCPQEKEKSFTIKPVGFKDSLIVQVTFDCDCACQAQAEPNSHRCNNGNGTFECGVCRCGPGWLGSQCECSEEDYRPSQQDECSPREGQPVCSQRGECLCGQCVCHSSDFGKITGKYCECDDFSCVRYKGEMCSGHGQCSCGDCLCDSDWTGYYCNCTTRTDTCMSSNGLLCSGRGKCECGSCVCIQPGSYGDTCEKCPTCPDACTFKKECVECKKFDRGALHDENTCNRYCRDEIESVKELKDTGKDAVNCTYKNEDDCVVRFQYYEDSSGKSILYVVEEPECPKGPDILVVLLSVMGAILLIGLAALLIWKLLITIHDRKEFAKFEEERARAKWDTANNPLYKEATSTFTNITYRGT

Structure (SMILES): Cc1cnc2n1-c1ccc(C#CCCCCN)cc1C(=O)N(CCC(=O)O)C2 [H2 N(CH2)4 CC]
- IC50 [1, 3]: 57 nM
- IC50 [2, 4]: 8290 nM

- IC50 ([1]; internal standard, measured according to the assays described herein, read-out: Fg/GPIIb IIIa ELISA IC50): ~25 nM
- IC50 ([2]; Platelet, internal standard, measured according to the assays described herein, anticoagulant not stated, read-out: PA inhibition assay IC50): ~3000 nM
Structure (SMILES): N=C(N)c1ccc(C(=O)Nc2cccc(C(=O)NCCC(=O)O)c2)cc1 [N-[3-(4-amidinobenzamido)benzoyl]-3-aminoproprionoic acid, reference compound]

Structure (SMILES): N=C(N)c1ccc(C(=O)Nc2cccc(C(=O)NCCC(=O)O)c2)cc1 [drawing 2]
- IC50 in an ELISA measurement of fibrinogen GPIIb IIIa binding (GPIIb IIIa): particular low IC50

Structure (SMILES): Cc1cnc2n1-c1ccc(C#Cc3ccc(C(=N)N)cc3)cc1C(=O)N(CCC(=O)O)C2 [p-H2 N(NH)CC6 H4 CC]
- IC50 [1, 3]: 4 nM
- IC50 [2, 4]: 93 nM
- IC50 [2, 5]: 240 nM

Structure (SMILES): Cc1cnc2n1-c1ccc(OCc3ccc(C(=N)N)cc3)cc1C(=O)N(CCC(=O)O)C2 [p-H2 N(NH)CC6 H4 CH2 O]
- IC50 [1, 3]: 9 nM
- IC50 [2, 4]: 133 nM
- IC50 [2, 5]: 220 nM

Structure (SMILES): Cc1nnc2n1-c1ccc(OCc3ccc(C(=N)N)cc3)cc1C(=O)N(CCC(=O)O)C2 [p-H2 N(NH)CC6 H4 CH2 O]
- IC50 [2, 6]: 5 nM
- IC50 [2, 7]: 86 nM

- IC50 [2, 6]: 540 nM
- IC50 [2, 7]: 1700 nM
Structure (SMILES): N=C(N)c1ccc(COc2ccc3c(c2)C(=O)N(CCC(=O)O)Cc2nc4ccccc4c(=O)n2-3)cc1 [p-H2 N(NH)CC6 H4 CH2 O]
